# Test results from PubChem BioAssay (NCI).
#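 Assay format: 96-well plates, 48-hour exposure. GI50 is the concentration that inhibits growth by half. TGI: total growth inhibition.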
# Assays:
# Assay in all cases: DTP human tumour cell line panel, 48 h
# 786-0 renal = system: 786-0 renal
# A498 renal = system: A498 renal
# A549 NSCLC = system: A549 NSCLC
# ACHN renal = system: ACHN renal
# BT-549 breast = system: BT-549 breast
# CAKI-1 renal = system: CAKI-1 renal
# CCRF-CEM leukemia = system: CCRF-CEM leukemia
# COLO 205 colon = system: COLO 205 colon
# DU-145 prostate = system: DU-145 prostate
# EKVX NSCLC = system: EKVX NSCLC
# HCC-2998 colon = system: HCC-2998 colon
# HCT-116 colon = system: HCT-116 colon
# HCT-15 colon = system: HCT-15 colon
# HL-60(TB) leukemia = system: HL-60(TB) leukemia
# HOP-62 NSCLC = system: HOP-62 NSCLC
# HOP-92 NSCLC = system: HOP-92 NSCLC
# HS 578T breast = system: HS 578T breast
# HT29 colon = system: HT29 colon
# IGROV1 ovarian = system: IGROV1 ovarian
# K-562 leukemia = system: K-562 leukemia
# KM12 colon = system: KM12 colon
# LOX IMVI melanoma = system: LOX IMVI melanoma
# M14 melanoma = system: M14 melanoma
# MALME-3M melanoma = system: MALME-3M melanoma
# MCF7 breast = system: MCF7 breast
# MDA-MB-231 breast = system: MDA-MB-231 breast
# MDA-MB-435 = system: MDA-MB-435
# MDA-N = system: MDA-N
# MOLT-4 leukemia = system: MOLT-4 leukemia
# NCI-H226 lung = system: NCI-H226 lung
# NCI-H23 lung = system: NCI-H23 lung
# NCI-H522 lung = system: NCI-H522 lung
# NCI/ADR-RES ovarian = system: NCI/ADR-RES ovarian
# OVCAR-3 ovarian = system: OVCAR-3 ovarian
# OVCAR-4 ovarian = system: OVCAR-4 ovarian
# OVCAR-5 ovarian = system: OVCAR-5 ovarian
# OVCAR-8 ovarian = system: OVCAR-8 ovarian
# PC-3 prostate = system: PC-3 prostate
# RPMI-8226 leukemia = system: RPMI-8226 leukemia
# RXF 393 renal = system: RXF 393 renal
# SF-268 CNS = system: SF-268 CNS
# SF-295 CNS = system: SF-295 CNS
# SK-MEL-2 melanoma = system: SK-MEL-2 melanoma
# SK-MEL-28 melanoma = system: SK-MEL-28 melanoma
# SK-MEL-5 melanoma = system: SK-MEL-5 melanoma
# SK-OV-3 ovarian = system: SK-OV-3 ovarian
# SN12C renal = system: SN12C renal
# SNB-19 CNS = system: SNB-19 CNS
# SNB-75 CNS = system: SNB-75 CNS
# SR leukemia = system: SR leukemia
# SW-620 colon = system: SW-620 colon
# T-47D breast = system: T-47D breast
# TK-10 renal = system: TK-10 renal
# U251 CNS = system: U251 CNS
# UACC-257 melanoma = system: UACC-257 melanoma
# UACC-62 melanoma = system: UACC-62 melanoma
# UO-31 renal = system: UO-31 renal
# NCI-H460 lung = system: NCI-H460 lung
# SF-539 CNS = system: SF-539 CNS
compound,measurement,setting,value
COc1cc(C2S/C(=C/c3ccccc3)C(=O)N2c2ccc(Cl)cc2)cc(OC)c1OC (centres undefined),TGI,786-0 renal,> 100 µM
same,TGI,A498 renal,> 100 µM
same,TGI,A549 NSCLC,> 100 µM
same,TGI,ACHN renal,> 100 µM
same,TGI,BT-549 breast,> 100 µM
same,TGI,CAKI-1 renal,> 100 µM
same,TGI,CCRF-CEM leukemia,> 100 µM
same,TGI,COLO 205 colon,5.68 µM
same,TGI,DU-145 prostate,> 100 µM
same,TGI,EKVX NSCLC,> 100 µM
same,TGI,HCC-2998 colon,> 100 µM
same,TGI,HCT-116 colon,> 100 µM
same,TGI,HCT-15 colon,> 100 µM
same,TGI,HL-60(TB) leukemia,85 µM
same,TGI,HOP-62 NSCLC,> 100 µM
same,TGI,HOP-92 NSCLC,> 52 µM
same,TGI,HS 578T breast,> 100 µM
same,TGI,HT29 colon,> 75.9 µM
same,TGI,IGROV1 ovarian,> 100 µM
same,TGI,K-562 leukemia,> 100 µM
same,TGI,KM12 colon,> 100 µM
same,TGI,LOX IMVI melanoma,52.4 µM
same,TGI,M14 melanoma,> 46 µM
same,TGI,MALME-3M melanoma,87.2 µM
same,TGI,MCF7 breast,> 100 µM
same,TGI,MDA-MB-231 breast,> 96.6 µM
same,TGI,MDA-MB-435,24.8 µM
same,TGI,MDA-N,34.3 µM
same,TGI,MOLT-4 leukemia,> 81.5 µM
same,TGI,NCI-H226 lung,> 100 µM
same,TGI,NCI-H23 lung,> 100 µM
same,TGI,NCI-H522 lung,21.2 µM
same,TGI,NCI/ADR-RES ovarian,> 100 µM
same,TGI,OVCAR-3 ovarian,> 100 µM
same,TGI,OVCAR-4 ovarian,> 100 µM
same,TGI,OVCAR-5 ovarian,> 100 µM
same,TGI,OVCAR-8 ovarian,> 100 µM
same,TGI,PC-3 prostate,> 84.4 µM
same,TGI,RPMI-8226 leukemia,> 100 µM
same,TGI,RXF 393 renal,> 100 µM
same,TGI,SF-268 CNS,> 100 µM
same,TGI,SF-295 CNS,> 100 µM
same,TGI,SK-MEL-2 melanoma,> 30.2 µM
same,TGI,SK-MEL-28 melanoma,> 100 µM
same,TGI,SK-MEL-5 melanoma,> 100 µM
same,TGI,SK-OV-3 ovarian,> 100 µM
same,TGI,SN12C renal,> 100 µM
same,TGI,SNB-19 CNS,> 100 µM
same,TGI,SNB-75 CNS,> 79.9 µM
same,TGI,SR leukemia,> 100 µM
same,TGI,SW-620 colon,> 100 µM
same,TGI,T-47D breast,> 25.6 µM
same,TGI,TK-10 renal,> 100 µM
same,TGI,U251 CNS,> 94.1 µM
same,TGI,UACC-257 melanoma,> 100 µM
same,TGI,UACC-62 melanoma,> 100 µM
same,TGI,UO-31 renal,> 100 µM
C=C(C)[C@]12CC(C)C34OC(/C=C\C=C\CCCCCCCCC)(O[C@@H]1[C@@H]3[C@@H]1O[C@]1(CO)[C@@H](O)[C@]1(O)C(=O)C(C)=C[C@@H]41)O2 (some centres undefined),TGI,786-0 renal,21.5 µM
same,GI50,A549 NSCLC,< 0.0001 µM
same,TGI,A549 NSCLC,20.9 µM
same,TGI,ACHN renal,22.8 µM
same,TGI,BT-549 breast,18.5 µM
same,TGI,CCRF-CEM leukemia,> 26.1 µM
same,TGI,COLO 205 colon,14.1 µM
same,TGI,DU-145 prostate,22.1 µM
same,TGI,EKVX NSCLC,27.8 µM
same,GI50,HCC-2998 colon,< 0.0001 µM
same,TGI,HCT-116 colon,21 µM
same,TGI,HCT-15 colon,25.4 µM
same,GI50,HL-60(TB) leukemia,< 0.0001 µM
same,TGI,HL-60(TB) leukemia,> 20.5 µM
same,TGI,HOP-92 NSCLC,22.4 µM
same,TGI,HS 578T breast,3.97 µM
same,TGI,HT29 colon,8.26 µM
same,TGI,IGROV1 ovarian,30 µM
same,GI50,K-562 leukemia,< 0.0001 µM
same,TGI,K-562 leukemia,> 35 µM
same,TGI,KM12 colon,21.7 µM
same,GI50,LOX IMVI melanoma,1.48 µM
same,TGI,LOX IMVI melanoma,3.88 µM
same,TGI,M14 melanoma,27.4 µM
same,GI50,MALME-3M melanoma,< 0.0001 µM
same,TGI,MALME-3M melanoma,23.1 µM
same,TGI,MCF7 breast,23.4 µM
same,TGI,MDA-MB-231 breast,15.4 µM
same,GI50,MDA-MB-435,< 0.0001 µM
same,TGI,MDA-MB-435,21.5 µM
same,GI50,MDA-N,0.000167 µM
same,TGI,MDA-N,19 µM
same,TGI,NCI-H226 lung,33.2 µM
same,TGI,NCI-H23 lung,29.2 µM
same,GI50,NCI-H460 lung,< 0.0001 µM
same,TGI,NCI-H460 lung,16 µM
same,TGI,NCI-H522 lung,30.7 µM
same,TGI,NCI/ADR-RES ovarian,45.2 µM
same,TGI,OVCAR-3 ovarian,16.3 µM
same,TGI,OVCAR-4 ovarian,22.6 µM
same,TGI,OVCAR-5 ovarian,41.2 µM
same,TGI,OVCAR-8 ovarian,31.8 µM
same,GI50,PC-3 prostate,< 0.0001 µM
same,TGI,PC-3 prostate,12.9 µM
same,TGI,RPMI-8226 leukemia,17 µM
same,TGI,RXF 393 renal,28.6 µM
same,TGI,SF-268 CNS,28.5 µM
same,TGI,SF-539 CNS,17.2 µM
same,TGI,SK-MEL-28 melanoma,25.6 µM
same,GI50,SK-MEL-5 melanoma,0.000417 µM
same,TGI,SK-MEL-5 melanoma,24.3 µM
same,TGI,SK-OV-3 ovarian,35.1 µM
same,TGI,SN12C renal,7.86 µM
same,TGI,SNB-19 CNS,30.5 µM
same,TGI,SNB-75 CNS,22 µM
same,TGI,SR leukemia,15.8 µM
same,TGI,T-47D breast,26.5 µM
same,TGI,TK-10 renal,19.1 µM
same,TGI,U251 CNS,49.9 µM
same,TGI,UACC-257 melanoma,28.5 µM
same,TGI,UACC-62 melanoma,24 µM
same,TGI,UO-31 renal,24.8 µM
